Results taken from ChEMBL document CHEMBL3112480, “γ-Alkylidene-γ-lactones and isobutylpyrrol-2(5H)-ones analogues to rubrolides as inhibitors of biofilm formation by gram-positive and gram-negative bacteria” (Bioorg Med Chem Lett, 2014).
Values after ≈ are worked out from the molar mass of the structure shown.

Columns and labels:
Streptococcus mutans [1] = assay: Antibacterial activity against Streptococcus mutans ATCC 25175 assessed as effect on planktonic growth at 21.9 ug/ml after 20 hrs relative to control; assay type: functional
Streptococcus mutans [2] = assay: Antibacterial activity against Streptococcus mutans ATCC 25175 assessed as effect on planktonic growth at 43.8 ug/ml after 20 hrs relative to control; assay type: functional
Streptococcus mutans [3] = assay: Antibacterial activity against Streptococcus mutans ATCC 25175 assessed as effect on planktonic growth at 87.5 ug/ml after 20 hrs relative to control; assay type: functional
Staphylococcus aureus [4] = assay: Antibacterial activity against Staphylococcus aureus ATCC 25923 assessed as effect on planktonic growth at 0.17 ug/ml after 20 hrs relative to control; assay type: functional
Staphylococcus aureus [5] = assay: Antibacterial activity against Staphylococcus aureus ATCC 25923 assessed as effect on planktonic growth at 0.34 ug/ml after 20 hrs relative to control; assay type: functional
Staphylococcus aureus [6] = assay: Antibacterial activity against Staphylococcus aureus ATCC 25923 assessed as effect on planktonic growth at 0.68 ug/ml after 20 hrs relative to control; assay type: functional
Staphylococcus aureus [7] = assay: Antibacterial activity against Staphylococcus aureus ATCC 25923 assessed as effect on planktonic growth at 1.37 ug/ml after 20 hrs relative to control; assay type: functional
Staphylococcus aureus [8] = assay: Antibacterial activity against Staphylococcus aureus ATCC 25923 assessed as effect on planktonic growth at 5.5 ug/ml after 20 hrs relative to control; assay type: functional
Staphylococcus aureus [9] = assay: Antibacterial activity against Staphylococcus aureus ATCC 25923 assessed as effect on planktonic growth at 2.73 ug/ml after 20 hrs relative to control; assay type: functional
Staphylococcus aureus [10] = assay: Antibacterial activity against Staphylococcus aureus ATCC 25923 assessed as effect on planktonic growth at 10.9 ug/ml after 20 hrs relative to control; assay type: functional
Staphylococcus aureus [11] = assay: Antibacterial activity against Staphylococcus aureus ATCC 25923 assessed as effect on planktonic growth at 21.9 ug/ml after 20 hrs relative to control; assay type: functional
Staphylococcus aureus [12] = assay: Antibacterial activity against Staphylococcus aureus ATCC 25923 assessed as effect on planktonic growth at 43.8 ug/ml after 20 hrs relative to control; assay type: functional
Staphylococcus aureus [13] = assay: Antibacterial activity against Staphylococcus aureus ATCC 25923 assessed as effect on planktonic growth at 87.5 ug/ml after 20 hrs relative to control; assay type: functional
Pseudomonas aeruginosa [14] = assay: Antibacterial activity against Pseudomonas aeruginosa ATCC 27853 assessed as effect on planktonic growth at 0.17 ug/ml after 20 hrs relative to control; assay type: functional
Pseudomonas aeruginosa [15] = assay: Antibacterial activity against Pseudomonas aeruginosa ATCC 27853 assessed as effect on planktonic growth at 0.34 ug/ml after 20 hrs relative to control; assay type: functional
Pseudomonas aeruginosa [16] = assay: Antibacterial activity against Pseudomonas aeruginosa ATCC 27853 assessed as effect on planktonic growth at 0.68 ug/ml after 20 hrs relative to control; assay type: functional
Pseudomonas aeruginosa [17] = assay: Antibacterial activity against Pseudomonas aeruginosa ATCC 27853 assessed as effect on planktonic growth at 1.37 ug/ml after 20 hrs relative to control; assay type: functional
Pseudomonas aeruginosa [18] = assay: Antibacterial activity against Pseudomonas aeruginosa ATCC 27853 assessed as effect on planktonic growth at 2.73 ug/ml after 20 hrs relative to control; assay type: functional
Pseudomonas aeruginosa [19] = assay: Antibacterial activity against Pseudomonas aeruginosa ATCC 27853 assessed as effect on planktonic growth at 5.5 ug/ml after 20 hrs relative to control; assay type: functional
Pseudomonas aeruginosa [20] = assay: Antibacterial activity against Pseudomonas aeruginosa ATCC 27853 assessed as effect on planktonic growth at 10.9 ug/ml after 20 hrs relative to control; assay type: functional
Pseudomonas aeruginosa [21] = assay: Antibacterial activity against Pseudomonas aeruginosa ATCC 27853 assessed as effect on planktonic growth at 21.9 ug/ml after 20 hrs relative to control; assay type: functional
Pseudomonas aeruginosa [22] = assay: Antibacterial activity against Pseudomonas aeruginosa ATCC 27853 assessed as effect on planktonic growth at 43.8 ug/ml after 20 hrs relative to control; assay type: functional
Pseudomonas aeruginosa [23] = assay: Antibacterial activity against Pseudomonas aeruginosa ATCC 27853 assessed as effect on planktonic growth at 87.5 ug/ml after 20 hrs relative to control; assay type: functional
[24] = test system: Staphylococcus epidermidis; assay: Antibacterial activity against Staphylococcus epidermidis ATCC 35547 assessed as effect on planktonic growth at 0.17 ug/ml after 20 hrs relative to control; assay type: functional
[25] = test system: Staphylococcus epidermidis; assay: Antibacterial activity against Staphylococcus epidermidis ATCC 35547 assessed as effect on planktonic growth at 0.34 ug/ml after 20 hrs relative to control; assay type: functional
[26] = test system: Staphylococcus epidermidis; assay: Antibacterial activity against Staphylococcus epidermidis ATCC 35547 assessed as effect on planktonic growth at 0.68 ug/ml after 20 hrs relative to control; assay type: functional
[27] = test system: Staphylococcus epidermidis; assay: Antibacterial activity against Staphylococcus epidermidis ATCC 35547 assessed as effect on planktonic growth at 1.37 ug/ml after 20 hrs relative to control; assay type: functional
[28] = test system: Staphylococcus epidermidis; assay: Antibacterial activity against Staphylococcus epidermidis ATCC 35547 assessed as effect on planktonic growth at 2.73 ug/ml after 20 hrs relative to control; assay type: functional
[29] = test system: Staphylococcus epidermidis; assay: Antibacterial activity against Staphylococcus epidermidis ATCC 35547 assessed as effect on planktonic growth at 5.5 ug/ml after 20 hrs relative to control; assay type: functional
[30] = test system: Staphylococcus epidermidis; assay: Antibacterial activity against Staphylococcus epidermidis ATCC 35547 assessed as effect on planktonic growth at 10.9 ug/ml after 20 hrs relative to control; assay type: functional
[31] = test system: Staphylococcus epidermidis; assay: Antibacterial activity against Staphylococcus epidermidis ATCC 35547 assessed as effect on planktonic growth at 21.9 ug/ml after 20 hrs relative to control; assay type: functional
[32] = test system: Staphylococcus epidermidis; assay: Antibacterial activity against Staphylococcus epidermidis ATCC 35547 assessed as effect on planktonic growth at 43.8 ug/ml after 20 hrs relative to control; assay type: functional
[33] = test system: Staphylococcus epidermidis; assay: Antibacterial activity against Staphylococcus epidermidis ATCC 35547 assessed as effect on planktonic growth at 87.5 ug/ml after 20 hrs relative to control; assay type: functional
Staphylococcus aureus [34] = assay: Induction of biofilm formation in Staphylococcus aureus ATCC 25923 at 44 ug/ml after 20 hrs by crystal-violet staining method relative to control; assay type: organism-based
Pseudomonas aeruginosa [35] = assay: Antibacterial activity against Pseudomonas aeruginosa ATCC 27853 assessed as inhibition of biofilm formation after 20 hrs by crystal-violet staining method; assay type: functional, organism-based
[36] = test system: Staphylococcus epidermidis; assay: Antibacterial activity against Staphylococcus epidermidis ATCC 35547 assessed as inhibition of biofilm formation after 20 hrs by crystal-violet staining method; assay type: functional, organism-based
Streptococcus mutans [37] = assay: Antibacterial activity against Streptococcus mutans ATCC 25175 assessed as effect on planktonic growth at 0.17 ug/ml after 20 hrs relative to control; assay type: functional
Streptococcus mutans [38] = assay: Antibacterial activity against Streptococcus mutans ATCC 25175 assessed as effect on planktonic growth at 0.34 ug/ml after 20 hrs relative to control; assay type: functional
Streptococcus mutans [39] = assay: Antibacterial activity against Streptococcus mutans ATCC 25175 assessed as effect on planktonic growth at 0.68 ug/ml after 20 hrs relative to control; assay type: functional
Streptococcus mutans [40] = assay: Antibacterial activity against Streptococcus mutans ATCC 25175 assessed as effect on planktonic growth at 1.37 ug/ml after 20 hrs relative to control; assay type: functional
Streptococcus mutans [41] = assay: Antibacterial activity against Streptococcus mutans ATCC 25175 assessed as effect on planktonic growth at 2.73 ug/ml after 20 hrs relative to control; assay type: functional
Streptococcus mutans [42] = assay: Antibacterial activity against Streptococcus mutans ATCC 25175 assessed as effect on planktonic growth at 5.5 ug/ml after 20 hrs relative to control; assay type: functional
Streptococcus mutans [43] = assay: Antibacterial activity against Streptococcus mutans ATCC 25175 assessed as effect on planktonic growth at 10.9 ug/ml after 20 hrs relative to control; assay type: functional

With `COc1ccc(C)cc1C1=C(Br)C(=O)N(CC(C)C)/C1=C\c1ccccc1Cl` the Activity (Streptococcus mutans [1]) was 14.6%, the Activity (Streptococcus mutans [2]) was 19.2% and the Activity (Streptococcus mutans [3]) was 49.5%. The Activity (Staphylococcus aureus [4]) was -4.2%, the Activity (Staphylococcus aureus [5]) was -3.3% and the Activity (Staphylococcus aureus [6]) was -4.9%. It also gave an Activity (Staphylococcus aureus [7]) of -13.4%, an Activity (Staphylococcus aureus [8]) of -12% and an Activity (Staphylococcus aureus [9]) of -6.6%. For the same compound, the Activity (Staphylococcus aureus [10]) was -13.4%, the Activity (Staphylococcus aureus [11]) was -6.3% and the Activity (Staphylococcus aureus [12]) was 8.9%. The Activity (Staphylococcus aureus [13]) was 33.8%, the Activity (Pseudomonas aeruginosa [14]) was -1.9% and the Activity (Pseudomonas aeruginosa [15]) was -5.5%. The Activity (Pseudomonas aeruginosa [16]) was -7.7%, the Activity (Pseudomonas aeruginosa [17]) was -10.6% and the Activity (Pseudomonas aeruginosa [18]) was -6%. For the same compound, the Activity (Pseudomonas aeruginosa [19]) was -13.8%, the Activity (Pseudomonas aeruginosa [20]) was -13.8% and the Activity (Pseudomonas aeruginosa [21]) was -13.3%. It also gave an Activity (Pseudomonas aeruginosa [22]) of -11.1%, an Activity (Pseudomonas aeruginosa [23]) of 0.8% and an Activity [24] of 4%. It also gave an Activity [25] of 17.8%, an Activity [26] of 3.4% and an Activity [27] of -4.4%. The Activity [28] was -5.5%, the Activity [29] was 3.3% and the Activity [30] was 13.1%. It also gave an Activity [31] of 31.7%, an Activity [32] of 46.4% and an Activity [33] of 65.8%. The Activity (Staphylococcus aureus [34]) was 3.6%, the inhibition (Pseudomonas aeruginosa [35]) was “Dose-dependent effect” and the IC50 (Pseudomonas aeruginosa [35]; ATCC 27853, 20 h) was 5.7 µg/mL (≈ 12.4 µM). For the same compound, the inhibition [36] was “Dose-dependent effect”, the IC50 ([36]; ATCC 35547, 20 h) was greater than 87.5 µg/mL and the Activity (Streptococcus mutans [37]) was -4.6%. For the same compound, the Activity (Streptococcus mutans [38]) was -1.4%, the Activity (Streptococcus mutans [39]) was -2.1% and the Activity (Streptococcus mutans [40]) was -0.4%. For the same compound, the Activity (Streptococcus mutans [41]) was 3.9%, the Activity (Streptococcus mutans [42]) was 8.9% and the Activity (Streptococcus mutans [43]) was 7.8%.
